Measured values published in publication PMC8248988, “A signal capture and proofreading mechanism for the KDEL-receptor explains selectivity and dynamic range in ER retrieval” (eLife, 2021).

Test system: ERP72
Assay: ER chaperone secretion assay, ERP72
Format: cell-based, human
Excerpt: Figure 1. ER retrieval signal abundance and affinity are not correlated. (a) Sequence logos for ER resident proteins with C-terminal KDEL retrieval signals and variants thereof calculated using frequency or protein abundance ([Itzhak et al., 2017]; [Itzhak et al., 2016]). (b) Combined cellular concentrations of ER resident proteins with canonical KDEL, RDEL, and HDEL retrieval sequences in HeLa cells and mouse brain. (c) Competition binding assays for [^3H]-TAEHDEL and unlabelled TAEKDEL, TAERDEL, and TAEHDEL to the KDEL receptor. IC50 values for the competing peptides were used to calculate the apparent KDwith the Cheng-Prusoff equation ([Cheng and Prusoff, 1973]). (d) Endogenous KDEL receptor redistribution was measured in COS-7 cells in the absence (-ligand) or presence of K/R/H/A/DDEL (mScarlet-xDEL^sec). TGN46 was used as a Golgi marker. Scale bar is 10 µm. […] The individual data points for the fraction of KDEL receptor fluorescence in the Golgi are plotted on the upper axes with sample sizes and p values. […] Endogenous ER chaperone secretion was measured by western blotting after challenge with different retrieval signals, and plotted as a bar graph showing mean ± SEM (n = 3). […] (a) Distribution of human KDELR1 and (b) KDELR2 was measured in COS-7 cells in the absence (-ligand) or presence of K/R/H/A/DDEL retrieval signals (K/R/H/A/DDEL^sec). […]

## ADEL [pcDNA3.1 hGHss-mScarlet-H. sapiens BiP639-654K651A (ADEL^SEC), secreted mScarlet fusion with human BiP C-terminus, ADEL signal]
mean, HeLa S3, 24 hr, Western blot densitometry
  ERP72 secretion after challenge with retrieval signal: 4.2
Replicate 2
  ERP72 secretion after challenge with retrieval signal: 1.0
